{"source": "patent US20060193893A1", "about": "“Medical devices” (ChemGenex Pharmaceuticals, Inc., priority 2005, published 2006)", "system": "chorioallantoic membrane (CAM)", "assay": "Effects of homoharringtonine in the early chicken chorioallantoic membrane (CAM) assay", "assay_type": "in vivo", "details": "for CAM area, Day 4: Day 4 (start of treatment, matched groups); for CAM area, Day 4 / CAM increase (fold) / Artery length / CAM area, Day 5 / Relative artery length / Relative total vessel length / Relative vein length / Total vessel length / Vein length: mean ± SEM, n = 6; for CAM increase (fold): Day 4 to Day 5; for Artery length / CAM area, Day 5 / Relative artery length / Relative total vessel length / Relative vein length / Total vessel length / Vein length: Day 5", "experimental": "Fertilized chicken eggs (HiChick Breeding Co, Kapunda, South Australia) were incubated for three days at 38° C. On Day 3 the embryos were cracked out of the egg and into a cup made of plastic piping, with plastic film stretched over the top to form a hammock for the egg to be suspended in. Two ml of DMEM containing penicillin and streptomycin was added to each cup prior to the egg being added. A Petri dish on the top maintained sterility. Incubation continued in a humidified 37° C. incubator.\nOn Day 4 the chorioallantoic membrane (CAM) begins to grow, and pictures were taken of each embryo at ×5 to measure the CAM area using image analysis software (Video Pro 32, Leading Edge Pty Ltd, South Australia). Embryos were then grouped according to their CAM area, with a control embryo in each for comparison. There were four matched embryos, treated with 6.25, 12.5 and 25 ng of homoharringtonine. Grouping is critical as in these early developmental stages changes in the CAM growth are dramatic. Relatively small differences in size on Day 4 translate to large differences in the CAM on Day 5, making it impossible to compare treatments. Substances were applied in methylcellulose discs, which were first dried under vacuum overnight. The methylcellulose discs were applied to the top of the CAM, and at the beginning of treatment were at least three to four-fold bigger than the CAM area, meaning treatment covered the entire CAM surface.\nOn Day 5 skim milk with contrast medium was injected into the CAM. Pictures were then taken at various levels of magnification up to ×63. Quantitative measurements were made from ×5 pictures. CAM area, and vein and artery lengths were measured using image analysis (Video Pro 32, Leading Edge Pty Ltd, South Australia). Relative vessel lengths were then calculated as the total length/CAM area. Statistical analysis was made using SigmaStat and OneWay ANOVA with p<0.05 as the level of significance.\nFIG. 3A illustrates the normal organization of the CAM is uniform, with the major vein draining towards the left, and the artery branches coming over the edge of the top and bottom of the CAM. FIGS. 3B and 3C schematically illustrate tracing of the vein and artery branches, as performed for the measurement of vessel lengths.\nThe angiogenic inhibitor, homoharringtonine, was obtained from ChemGenex Therapeutics, Inc. (Menlo Park, Calif.) and was made to the appropriate concentration in sterile water. […] Homoharringtonine was applied at 6.25, 12.5 and 25 ng (11.3, 22.5 and 45 nM) doses, and compared with water treated controls. Homoharringtonine reduced the growth of the CAM to 42% of the control in the 25 ng treated CAM. […] The vein, artery and total vessel lengths were reduced to 15%, 18% and 17% of control, respectively.", "note": "Marks after values point to notes of the source that are not given here.", "data": [{"compound": "COC(=O)C[C@](O)(CCCC(C)(C)O)C(=O)O[C@@H]1C(OC)=C[C@]23CCCN2CCc2cc4c(cc2[C@H]13)OCO4", "note": "[Homoharringtonine, cephalotaxine, 4-methyl-2-hydroxy-2-(4-hydroxy-4-methylpentyl) butanediocate ester]", "values": [{"measurement": "CAM area, Day 4", "setting": "6.25 ng in methylcellulose disc", "result": "6.5 ± 1.6", "unit": "pixels"}, {"measurement": "CAM increase (fold)", "setting": "6.25 ng", "result": "7.0 ± 0.4 ^a fold"}, {"measurement": "Artery length", "setting": "6.25 ng", "result": "1573 ± 516^ pixels"}, {"measurement": "CAM area, Day 5", "setting": "6.25 ng", "result": "45.3 ± 11.6", "unit": "pixels"}, {"measurement": "Relative artery length", "setting": "6.25 ng", "result": "31.6 ± 4.5 ^a b length/CAM area"}, {"measurement": "Relative total vessel length", "setting": "6.25 ng", "result": "63.2 ± 7.7 ^b length/CAM area"}, {"measurement": "Relative vein length", "setting": "6.25 ng", "result": "31.6 ± 4.6 ^b length/CAM area"}, {"measurement": "Total vessel length", "setting": "6.25 ng", "result": "3055 ± 1003", "unit": "pixels"}, {"measurement": "Vein length", "setting": "6.25 ng", "result": "1482 ± 499^ pixels"}, {"measurement": "CAM area, Day 4", "setting": "12.5 ng in methylcellulose disc", "result": "6.3 ± 1.6^ pixels"}, {"measurement": "CAM increase (fold)", "setting": "12.5 ng", "result": "9.0 ± 1.0 ^b fold"}, {"measurement": "Artery length", "setting": "12.5 ng", "result": "1787 ± 544 ^ pixels"}, {"measurement": "CAM area, Day 5", "setting": "12.5 ng", "result": "53.0 ± 11.6^ pixels"}, {"measurement": "Relative total vessel length", "setting": "12.5 ng", "result": "60.1 ± 7.5 ^b length/CAM area"}, {"measurement": "Relative vein length", "setting": "12.5 ng", "result": "28.3 ± 4.4 ^b length/CAM area"}, {"measurement": "Total vessel length", "setting": "12.5 ng", "result": "3351 ± 953 ^ pixels"}, {"measurement": "Vein length", "setting": "12.5 ng", "result": "1564 ± 427 ^ pixels"}, {"measurement": "embryo survival at 25 ng", "setting": "25 ng dose", "result": "killed one of the smaller embryos"}, {"measurement": "artery length, % of control", "setting": "25 ng group vs water control", "result": 18, "unit": "%"}, {"measurement": "total vessel length, % of control", "setting": "25 ng group vs water control", "result": 17, "unit": "%"}, {"measurement": "vein length, % of control", "setting": "25 ng group vs water control", "result": 15, "unit": "%"}, {"measurement": "CAM area, Day 4", "setting": "25 ng in methylcellulose disc", "result": "6.2 ± 1.5", "unit": "pixels"}, {"measurement": "growth of the CAM, % of the control", "setting": "25 ng treated CAM vs water control", "result": 42, "unit": "%"}, {"measurement": "CAM increase (fold)", "setting": "25 ng", "result": "4.3 ± 0.7 ^a fold"}, {"measurement": "Artery length", "setting": "25 ng", "result": "551 ± 265 ^a pixels"}, {"measurement": "CAM area, Day 5", "setting": "25 ng", "result": "30.2 ± 9.9 ^ pixels"}, {"measurement": "Relative artery length", "setting": "25 ng", "result": "13.0 ± 4.3 ^a length/CAM area"}, {"measurement": "Relative total vessel length", "setting": "25 ng", "result": "24.3 ± 6.7 ^a length/CAM area"}, {"measurement": "Relative vein length", "setting": "25 ng", "result": "11.3 ± 3.5 ^a length/CAM area"}, {"measurement": "Total vessel length", "setting": "25 ng", "result": "909 ± 396 ^a pixels"}, {"measurement": "Vein length", "setting": "25 ng", "result": "359 ± 143 ^a pixels"}, {"measurement": "embryo survival at the initial doses", "setting": "initial doses, above 25 ng, dose then reduced", "result": "resulted in the death of the embryos"}]}, {"compound": "CC(=O)O[C@H]1C(=O)[C@@]2(C)[C@H]([C@H](OC(=O)c3ccccc3)[C@]3(O)C[C@H](OC(=O)[C@H](O)[C@@H](NC(=O)c4ccccc4)c4ccccc4)C(C)=C1C3(C)C)[C@]1(OC(C)=O)CO[C@@H]1C[C@@H]2O", "note": "[taxol]", "values": [{"measurement": "qualitative changes at higher magnification (FIG. 5)", "setting": "homoharringtonine 25 ng, taxol dose not given, vs water control", "result": "diffuse leakage of the red blood cells outside the vessels and the skeletons of larger vessels with no remaining blood flow"}]}]}
